Experimental data as given in patent US20240390490A1, “PHARMACEUTICAL COMPOSITIONS FOR THE TREATMENT OF CANCERS” (Rutgers, The State University of New Jersey, priority 2021, published 2024).
Read-outs that look alike come from different tables or passages of the source.

Key:
MDA-MB-231 cells = experiment: cells; conditions: read-out: Cell Viability IC50 (μM) ± SEM
Description: (§1) Cells in media with vehicle treatment are considered control wells. MTT (3-(4,5-dimethyl-2-thiazolyl)-2,5-diphenyl-2H-tetrazolium bromide) was prepared as a stock solution of 5 mg/mL in 1× phosphate-buffered saline (PBS, pH 7.2). At the end of the drug treatment period (24 or 48 or 72 hours), 10 μL of MTT solution was added to each well. After incubation for 4 hours at 37° C., 100 μL of solubilizing buffer (10% sodium dodecyl sulfate dissolved in 0.01 N HCl) was added to each well. After a 15-minute incubation at 37° C., the 96-well plate was read by a plate reader at 590 nm for absorbance density values to determine the cell viability. The cell viability (percentage of control) is calculated by using the following formula: (OD of treated well (−blank))/(mean OD control well (−blank))×100. […] Drug effects on these cells were determined in quadruplicate wells in three independent experiments.

T47D cells = experiment: cells
Description: as §1

[1] = system: MDA-MB-231, MDA-MB-468, and T47D cells; conditions: read-out: IC50 dose; range over cell lines and time of treatment (24, 48, 72 hours)
Description: as §1

[2] = cited from earlier work
[3] = system: MDA-MB-231, MDA-MB-468, and T47D cells; experiment: Western blot of apoptotic regulatory proteins in breast cancer cells; format: cell-based, human; conditions: 100-μM, 48 hours (Example 9)
Description: For protein analyses, tumor tissues from in vivo experiments, enriched NK cells from the spleen, and NK-92 MI cancer cell co-incubated samples were lysed with a buffer containing protease and phosphatase inhibitors (25 mM Tris-HCl, pH 7.4; 150 mM NaCl; 1% Nonidet P-40; 1 mM EDTA; and 5% glycerol with Pierce Halt Protease Inhibitor). Protein ([…]) from total lysate was loaded and separated on a 4-20% SDS-PAGE and transferred overnight to polyvinylidene difluoride membranes. Membranes were incubated with primary Ab for 12 hours at 4° C. in blocking buffer, 5% w/v nonfat dry milk in TBS, and 0.1% Tween 20. The following primary antibodies were purchased from Santa Cruz Biotechnology (Santa Cruz, CA): anti-perforin rabbit polyclonal (1:250), anti-granzyme B mouse monoclonal (1:200), anti-IFN-γ mouse monoclonal (1:250), anti-Snail (1:200), anti-Slug (1:200), and anti-Twist. Anti-E-cadherin (1:250), anti-N-cadherin (1:250), and anti-NKG2D goat polyclonal (1:500) were all from Abcam (Cambridge, MA). Membranes were washed and incubated with peroxidase-conjugated secondary Abs (1:5000; Vector Laboratories) for 1 hour at room temperature. Membranes were incubated with ECL western blot chemiluminescence reagent (Pierce) and exposed to x-ray film, which was developed, and densitometry was performed using Image J analysis software (National Institutes of Health). Each protein was normalized to corresponding intensities for β-actin.
The effects on apoptotic regulatory protein levels and signaling pathway were determined by treating MDA-MB-231, MDA-MB-468, and T47D cells with a 100-μM concentration of the drugs alone or in combination or vehicle alone for 48 hours. After the treatment period, cell were extracted and used for Western blot analysis of anti-apoptotic p-Bcl-xL and p-Bcl2, effector proteins such as p-Bax, pro-apoptotic molecule p-Bim, effector caspase 3 and Cytochrome c levels. Representative blots and mean densitometric values are presented as ratio of β-actin in the histograms. Data presented are mean±SEM (n=5-6 samples/group) and were analyzed using one-way ANOVA with the Newman-Keuls multiple comparisons post hoc test.

[4] = system: MDA-MB-468 and T47D cells; experiment: Cell cycle analysis (PI staining); format: cell-based, human; conditions: 100 μM
Description: Cell cycle analysis of breast cancer cells was carried out using propidium iodide (PI) staining protocol according to the manufacturer's instructions (Nexcelom Bioscience LLC, Lawrence, MA). […] Then, cells were harvested by trypsinization, centrifuged at 2000 rpm for 5 minutes, washed with PBS (pH 7.4), and fixed in ice cold 100% ethanol for 15 minutes. The cells were spun down and resuspended in 150 μl of PI-staining solution provided with the Cellometer PI Cell Cycle Kit. The PI-stained cells were then subjected to analysis in the Cellometer Vision instrument (Nexcelom Bioscience LLC) and the data was captured on Cellometer Vision CBA software (Nexcelom Bioscience LLC) and analyzed by FCS Express 4 software (Molecule Devices, Corp., Sunnyvale, CA). Differences in fluorescence intensity were used to determine the percentage of cells in each phase of the cell cycle and represented as histograms for control and drug-treated samples.

NK-92 MI cells = experiment: Cytotoxic protein levels in human NK cells (Western blot); format: cell-based; conditions: 50 μM, 12 hours
Description: The human NK cell line NK-92 MI (ATCC) was maintained in alpha minimum essential medium (MEM) without ribonucleosides and deoxyribonucleosides (Gibco) supplemented with final concentrations of 12-5% FBS, 12-5% horse serum (ATCC), 2 mM L-glutamine (Gibco), 1.5 g/L sodium bicarbonate (Gibco), 0.2 mM inositol (Sigma), 0.1 mM 2-mercaptoethanol (Gibco), and 0.02 mM folic acid (Sigma).
For protein analyses, tumor tissues from in vivo experiments, enriched NK cells from the spleen, and NK-92 MI cancer cell co-incubated samples were lysed with a buffer containing protease and phosphatase inhibitors (25 mM Tris-HCl, pH 7.4; 150 mM NaCl; 1% Nonidet P-40; 1 mM EDTA; and 5% glycerol with Pierce Halt Protease Inhibitor). Protein (50 mg) from total lysate was loaded and separated on a 4-20% SDS-PAGE and transferred overnight to polyvinylidene difluoride membranes. Membranes were incubated with primary Ab for 12 hours at 4° C. in blocking buffer, 5% w/v nonfat dry milk in TBS, and 0.1% Tween 20. The following primary antibodies were purchased from Santa Cruz Biotechnology (Santa Cruz, CA): anti-perforin rabbit polyclonal (1:250), anti-granzyme B mouse monoclonal (1:200), anti-IFN-γ mouse monoclonal (1:250), anti-Snail (1:200), anti-Slug (1:200), and anti-Twist. Anti-E-cadherin (1:250), anti-N-cadherin (1:250), and anti-NKG2D goat polyclonal (1:500) were all from Abcam (Cambridge, MA). […]

Row | Compound | IC50 (MDA-MB-231 cells; MDA-MB-231, 24 h) [µM] | IC50 (MDA-MB-231 cells; MDA-MB-231, 48 h) [µM] | IC50 (MDA-MB-231 cells; MDA-MB-231, 72 h) [µM] | IC50 (T47D cells; read-out: Cell Viability IC50 (μM) ± SEM, 24 h) [µM] | IC50 (T47D cells; read-out: Cell Viability IC50 (μM) ± SEM, 48 h) [µM] | IC50 (T47D cells; read-out: Cell Viability IC50 (μM) ± SEM, 72 h) [µM] | IC50 [1] [µM] | IC50 (MDA-MB-231 cells; Homo sapiens, MDA-MB-231, 24 h) [µM] | IC50 (MDA-MB-231 cells; Homo sapiens, MDA-MB-231, 48 h) [µM] | IC50 (MDA-MB-231 cells; Homo sapiens, MDA-MB-231, 72 h) [µM] | IC50 (T47D cells; Homo sapiens, 24 h, read-out: Cell Viability IC50 (μM) ± SEM) [µM] | IC50 (T47D cells; Homo sapiens, 48 h, read-out: Cell Viability IC50 (μM) ± SEM) [µM] | IC50 (T47D cells; Homo sapiens, 72 h, read-out: Cell Viability IC50 (μM) ± SEM) [µM] | water solubility [2] | anti-apoptotic Bcl-xL, p-Bcl-xL, Bcl-2, and p-Bcl-2 [3] | levels of Bax, p-Bax and p-Bim [3] | levels of Cytochrome c [3] | number of cells in the G0/G1 cycle [4] | granzyme B levels (NK-92 MI cells) | perforin levels (NK-92 MI cells)
1 | CC1(C)SSC(C)(C)[C@@H](NC(=O)[C@@H](N)Cc2ccc(O)cc2)C(=O)NCC(=O)N[C@@H](Cc2ccccc2)C(=O)N[C@H]1C(=O)O [DPDPE, (D-Pen^2, D-Pen^5)-enkephalin] | 140.4 ± 0.39 | 120.8 ± 0.36 | 119.9 ± 1.07 | 125.1 ± 1.21 | 120.2 ± 1.17 | 120.46 ± 0.04 | 115 to 140 |  |  |  |  |  |  |  |  |  |  |  |  | 
2 | O=C1CC[C@@]2(O)[C@H]3Cc4ccc(O)c5c4[C@@]2(CCN3CC2CC2)[C@H]1O5 [NTX, 17-(cyclopropylmethyl)-4,5α-epoxy-3,14-dihydroxymorphinan-6-one] |  |  |  |  |  |  |  | 140.8 ± 0.15 | 120.5 ± 0.38 | 121 ± 1.65 | 125 ± 1.37 | 122 ± 1.72 | 120 ± 1.61 | not water soluble | downregulated | increased | increased | moderately but not significantly reduced |  | 
3 | CC(C)NCC(O)COc1cccc2ccccc12 (centres unmarked) [PRO, propranolol] |  |  |  |  |  |  |  |  |  |  |  |  |  |  | downregulated | increased | increased |  | moderately elevated | moderately elevated
